Structures are written as SMILES.

These results are taken from patent EP4813978A1, “COMPOUND TARGETING UBIQUITIN KRAS PROTEIN DEGRADATION AGENT, AND USE THEREOF” (Betta Pharmaceuticals Co., Ltd, priority 2023, dated 2025).

For series [1], the system named is AGS. The series can be described thus: Cell proliferation assay (Cell-titer Glo), AGS. Particulars: Homo sapiens, KRAS G12D, 96 h. Format: cell-based. As to the method:
(§1) Cells with different mutations were seeded in low-attachment transparent 96-well plates at the seeding densities shown in Table 1, and incubated overnight in a cell culture incubator. After the cells adhered, the test compounds were added to the 96-well plates at final concentrations of 20000 nM, 5000 nM, 1250 nM, 312.5 nM, 78.13 nM, 19.53 nM, 4.88 nM, 1.22 nM, 0.31 nM, 0 nM (the final concentration of DMSO was 0.25% in all wells). After culturing at 37°C for 96 h, 50 µL of Cell-titer Glo working solution was added to each well. The plates were shaken to mix and then incubated at room temperature for 10 min. Luminescence values were read on a multimode microplate reader, and the luminescence data were converted into percentage inhibition. The percentage of cell proliferation inhibition was calculated according to the following formula: Percentage inhibition = (1−(TestValue−Blank)/(MaxValue−Blank)) × 100% [formula]
(§2) ("Max value" is from the 0.25% DMSO control wells, "Blank" is from the blank medium control wells, and "Test Value" is from the compound-treated wells).
(§3) Curve fitting was performed using GraphPad Prism software to obtain IC50 (nM) values.

In series [2] the test system is SW620. Put plainly: Cell proliferation assay (Cell-titer Glo), SW620. It is filed as cell-based. Particulars: Homo sapiens, SW-620, SW620, KRAS G12V, 96 h. As for the experimental part:
as §1, §2, §3

For series [3], the system named is Panc0403. The series can be described thus: Cell proliferation assay (Cell-titer Glo), Panc0403. Format: cell-based. Particulars: Homo sapiens, Panc 04.03, Panc0403, KRAS G12D, 96 h. As to the method: as §1, §2, §3
Series [4] concerns AsPC-1. The series can be described thus: Cell proliferation assay (Cell-titer Glo), AsPC-1. It is filed as cell-based. The following applies: Homo sapiens, ASPC1, AsPC-1, KRAS G12D, 96 h. As to the method:
as §1, §2, §3

Series [5] has as its system MKN-1. Put plainly: Cell proliferation assay (Cell-titer Glo), MKN-1. It is filed as cell-based. Particulars: Homo sapiens, MKN-1, KRAS WT-Amp, 96 h. As for the experimental part: as §1, §2, §3
For series [6], the system named is HCT116. Put plainly: Cell proliferation assay (Cell-titer Glo), HCT116. Format: cell-based. The following applies: Homo sapiens, HCT-116, HCT116, KRAS G13D, 96 h. As for the experimental part:
as §1, §2, §3

Series [7] can be described thus: PK study in ICR mice, intravenous single administration. Format: in vivo. Particulars: female, 3 mg/kg. As for the experimental part:
Compound 115 was mixed with the vehicle 10% DMSO/5% Solutol/85% physiological saline, vortexed and sonicated to prepare a 0.6 mg/mL clear solution. Female ICR mice aged 6 to 7 weeks were selected, not fasted, and administered Compound 115 intravenously. Whole blood was collected at certain time points. Drug concentrations were analyzed by LC-MS/MS method, and pharmacokinetic parameters were calculated using Phoenix WinNonlin software (Pharsight, USA). Table 3. Mouse PK data for intravenous single administration of Compound 115

Series [8] can be described thus: PK study in SD rats, intravenous single administration. Format: in vivo. The following applies: male, 3 mg/kg. As to the method:
Compound 115 was mixed with the vehicle 10% DMSO/5% Solutol/85% physiological saline, vortexed and sonicated to prepare a 1.5 mg/mL clear solution. Male SD rats aged 6 to 7 weeks were selected, fasted for 8 h, and then administered Compound 115 intravenously. Whole blood was collected at certain time points. Drug concentrations were analyzed by LC-MS/MS method, and pharmacokinetic parameters were calculated using Phoenix WinNonlin software (Pharsight, USA). Table 4. Rat PK data for intravenous single administration of Compound 115

A short description of series [9]: PK study in Beagle dogs, intravenous single administration. It is filed as in vivo. The following applies: one female and one male, 3 mg/kg. As to the method:
Compound 115 was mixed with the vehicle 10% DMSO/5% Solutol/85% physiological saline, vortexed and sonicated to prepare a 1.5 mg/mL clear intravenous injection solution. Beagle dogs weighing approximately 10 kg (half male, half female) were selected, not fasted, and administered Compound 115 intravenously. Whole blood samples were collected intravenously at 5 min, 15 min, 30 min, 1 h, 2 h, 4 h, 6 h, 8 h, 10 h, 24 h, 48 h, and 72 h. Drug concentrations were analyzed by LC-MS/MS method, and pharmacokinetic parameters were calculated using Phoenix WinNonlin software (Pharsight, USA). Table 5. Beagle Dog PK data for intravenous single administration of Compound 115

On to `CCc1c(F)ccc2cc(O)cc(-c3ncc4c(N5CCOC[C@@](C)(O)C5)nc(OCC5(CN6CCC7(CCN(Cc8cnc(-c9cn([C@H](C(=O)N%10C[C@H](O)C[C@H]%10C(=O)N[C@@H](C)c%10ccc(-c%11scnc%11C)cc%10)C(C)C)nn9)cn8)CC7)CC6)CC5)nc4c3F)c12` [Compound 115, (2S,4R)-1-((S)-2-(4-(5-((9-((1-(((7-(8-ethyl-7-fluoro-3-hydroxynaphthalen-1-yl)-8-fluoro-4-((S)-6-hydroxy-6-methyl-1,4-oxazepan-4-yl)pyrido[4,3-d]pyrimidin-2-yl)oxy)methyl)cyclopropyl)methyl)-3,9-diazaspiro[5.5]undecan-3-yl)methyl)pyrazin-2-yl)-1H-1,2,3-triazol-1-yl)-3-methylbutanoyl)-4-hydroxy-N-((S)-1-(4-(4-methylthiazol-5-yl)phenyl)ethyl)pyrrolidine-2-carboxamide], for which the IC50 turned out to be 0.9 nM in [1]; 8 nM in series [2]; 5.9 nM in series [3]; 1.9 nM in [4]; 0.7 nM in [5]; 20 nM in [6]. Besides, the figures for the Cl_obs in [7], in [8] and in [9] were 13.7 mL/min/kg, 5.44 mL/min/kg and 1.96 mL/min/kg, respectively. Besides, the Vss_obs in [7] is reported as 9.23 L/kg; in [8], 5.06 L/kg; in series [9], 1.82 L/kg. The AUC(0-t) was determined as 3710 ng·h/mL in series [7] (mouse, in vivo); 9170 ng·h/mL in series [8] (rat, in vivo); 20700 ng·h/mL in [9] (dog, in vivo). The C0 in [7] (mouse, in vivo) was 7510 ng/mL; in [8] (rat, in vivo) it was 17300 ng/mL; in [9] (dog, in vivo) it was 22700 ng/mL. Besides, the half-life in series [7] (mouse, in vivo) is 13.5 h; in [8] (rat, in vivo), 12.7 h; in series [9] (dog, in vivo), 23.3 h.
Take `CCc1c(F)ccc2cc(O)cc(-c3nc4c5c(nc(OCC6(CN7CCC(Oc8cnc(-c9cn([C@H](C(=O)N%10C[C@H](O)C[C@H]%10C(=O)N[C@@H](C)c%10ccc(-c%11scnc%11C)cc%10)C(C)C)nn9)cn8)CC7)CC6)nc5c3F)N3CCCOC[C@H]3CO4)c12` [Compound 112, (2S,4R)-1-((S)-2-(4-(5-((1-((1-((((S)-2-(8-ethyl-7-fluoro-3-hydroxynaphthalen-1-yl)-1-fluoro-5a, 6,9,10-tetrahydro-5H,8H-4,7-dioxa-3,10a,11,13-tetraazanaphtho[1,8-ab]heptalen-12-yl)oxy)methyl)cyclopropyl)methyl)piperidin-4-yl)oxy)pyrazin-2-yl)-1H-1,2,3-triazol-1-yl)-3-methylbutanoyl)-4-hydroxy-N-((S)-1-(4-(4-methylthiazol-5-yl)phenyl)ethyl)pyrrolidine-2-carboxamide]: the IC50 is 4.4 nM in [1]; 20 nM in series [2]; 6.5 nM in series [3]; 2.6 nM in [4]; 0.4 nM in series [5].
